Test results taken from patent publication US7759345B2, “Antitumoral derivatives of ET-743” (priority 2001, dated 2010).
Read-outs that look alike come from different tables or passages of the source.

How the values were obtained:
[1] = test system: A-549; assay: Inhibition of cells growth by colorimetric assay (SRB), A-549; assay type: cell-based
Method: (§1) 2°.—Inhibition of Cells Growth by Colorimetric Assay.
(§2) A colorimetric type of assay, using sulforhodamine B (SRB) reaction has been adapted for a quantitative measurement of cell growth and viability [following the technique described by Philip Skehan, et al. (1990), New colorimetric cytotoxicity assay for anticancer drug screening, J. Natl. Cancer Inst., 82:1107-1112]
(§3) This form of the assay employs 96 well cell culture microplates of 9 mm diameter (Faircloth, 1988; Mosmann, 1983). Most of the cell lines are obtained from American Type Culture Collection (ATCC) derived from different human cancer types.
(§4) Cells are maintained in RPMI 1640 10% FBS, supplemented with 0.1 g/l penicillin and 0.1 g/l streptomycin sulfate and then incubated at 37° C., 5% CO2 and 98% humidity. For the experiments, cells were harvested from subconfluent cultures using trypsin and resuspended in fresh medium before plating.
(§5) Cells are seeded in 96 well microtiter plates, at 5×10^3 cells per well in aliquots of 195 μl medium, and they are allowed to attach to the plate surface by growing in drug free medium for 18 hours. Afterward, samples are added in aliquots of 5 μl in a ranging from 10 to 10^−8 μg/ml, dissolved in DMSO/EtOH/PBS (0.5:0.5:99). After 48 hours exposure, the antitumor effect are measured by the SRB methodology: cells are fixed by adding 50 μl of cold 50% (wt/vol) trichloroacetic acid (TCA) and incubating for 60 minutes at 4° C. Plates are washed with deionized water and dried. One hundred μl of SRB solution (0.4% wt/vol in 1% acetic acid) is added to each microtiter well and incubated for 10 minutes at room temperature. Unbound SRB is removed by washing with 1% acetic acid. Plates are air dried and bound stain is solubilized with Tris buffer. Optical densities are read on a automated spectrophotometric plate reader at a single wavelength of 490 nm.
(§6) The values for mean+/−SD of data from triplicate wells are calculated. Some parameters for cellular responses can be calculated: GI=growth inhibition, TGI=total growth inhibition (cytostatic effect) and LC=cell killing (cytotoxic effect).
(§7) Obtained results may predict the usefulness of a certain drug as a potential cancer treatment. For this technique, compounds which show GI50 values smaller than 10 μg/ml are selected to continue with further studies. GI50's data allow to predict that not only could a drug be cystostatic, but also it could have a potential in terms of tumor reduction.

[2] = test system: HT-29; assay: Inhibition of cells growth by colorimetric assay (SRB), HT-29; assay type: cell-based
Method: as §1, §2, §3, §4, §5, §6, §7

[3] = Homo sapiens, A549, 48 h, A-549, SRB, 48 hours exposure, read-out: GI50 A-549
[4] = Homo sapiens, A549, 48 h, read-out: LC50 A-549, A-549, SRB, 48 hours exposure
[5] = Homo sapiens, HT-29, 48 h, HT-29, SRB, 48 hours exposure, read-out: GI50 HT-29
[6] = Homo sapiens, HT-29, 48 h, read-out: LC50 HT-29, HT-29, SRB, 48 hours exposure
[7] = Homo sapiens, A549, 48 h, read-out: A-549 GI50
[8] = Homo sapiens, A549, 48 h, read-out: A-549 LC50, A-549, SRB, 48 hours exposure
[9] = Homo sapiens, HT-29, 48 h, read-out: HT-29 GI50
[10] = Homo sapiens, HT-29, 48 h, read-out: HT-29 LC50, HT-29, SRB, 48 hours exposure
[11] = Homo sapiens, A549, 48 h, A-549, SRB, 48 hours exposure, read-out: A-549 GI50
[12] = Homo sapiens, HT-29, 48 h, HT-29, SRB, 48 hours exposure, read-out: HT-29 GI50

Compound	TGI A-549 ([1]; A-549, SRB, 48 hours exposure)	GI50 [1, 3] [nM]	LC50 (concentration for 50% cell killing) [1, 4] [nM]	TGI HT-29 ([2]; HT-29, SRB, 48 hours exposure)	GI50 [2, 5] [nM]	LC50 (concentration for 50% cell killing) [2, 6] [nM]	A-549 TGI ([1]; A-549, SRB, 48 hours exposure)	HT-29 TGI ([2]; HT-29, SRB, 48 hours exposure)	other results
COc1cc2c(cc1OC(=O)C(F)(F)C(F)(F)C(F)(F)F)CCN[C@]21CS[C@@H]2c3c(OC(C)=O)c(C)c4c(c3[C@H](COC1=O)N1C2[C@H]2c3c(cc(C)c(OC)c3O)C[C@@H]([C@@H]1C#N)N2C)OCO4 (stereo partly drawn) [Compound 13]	3.24E-09	1.08	8.65	3.24E-10	0.324	10.8	–	–	–
COc1cc2c(cc1OC(=O)c1cc3ccccc3oc1=O)CCN[C@]21CS[C@@H]2c3c(OC(C)=O)c(C)c4c(c3[C@H](COC1=O)N1C2[C@H]2c3c(cc(C)c(OC)c3O)C[C@@H]([C@@H]1C#N)N2C)OCO4 (stereo partly drawn) [Compound 21]	1.06E-08	3.34	10600	1.06E-07	5.31	10600	–	–	–
C=COC(=O)Oc1cc2c(cc1OC)[C@@]1(CS[C@@H]3c4c(OC(C)=O)c(C)c5c(c4[C@H](COC1=O)N1C3[C@H]3c4c(cc(C)c(OC)c4O)C[C@@H]([C@@H]1C#N)N3C)OCO5)NCC2 (stereo partly drawn) [Compound 29]	4.32E-09	2.16	10.8	2.16E-09	2.16	1080	–	–	–
C=COC(=O)Oc1cc2c(cc1OC)[C@@]1(CS[C@@H]3c4c(OC(C)=O)c(C)c5c(c4[C@H](COC1=O)N1C3[C@H]3c4c(cc(C)c(OC)c4OC(=O)OC=C)C[C@@H]([C@@H]1C#N)N3C)OCO5)NCC2 (stereo partly drawn) [Compound 30]	5.49E-08	32.9	3290	8.78E-08	87.8	11000	–	–	–
C=COC(=O)Oc1cc2c(cc1OC)[C@@]1(CS[C@@H]3c4c(OC(C)=O)c(C)c5c(c4[C@H](COC1=O)N1C3[C@H]3c4c(cc(C)c(OC)c4OC(=O)OC=C)C[C@@H]([C@@H]1C#N)N3C)OCO5)N(C(=O)OC=C)CC2 (stereo partly drawn) [Compound 31]	9.17E-08	40.8	1020	8.15E-08	81.5	10200	–	–	–
C=COC(=O)Oc1cc2c(cc1OC)[C@@]1(CS[C@@H]3c4c(OC(C)=O)c(C)c5c(c4[C@H](COC1=O)N1C3[C@H]3c4c(cc(C)c(OC)c4O)C[C@@H]([C@@H]1C#N)N3C)OCO5)N(C(=O)OC=C)CC2 (stereo partly drawn) [Compound 32]	6.59E-09	2.2	11	6.60E-09	1.1	9.88	–	–	–
C=COC(=O)N1CCc2cc(O)c(OC)cc2[C@@]12CS[C@@H]1c3c(OC(C)=O)c(C)c4c(c3[C@H](COC2=O)N2C1[C@H]1c3c(cc(C)c(OC)c3O)C[C@@H]([C@@H]2C#N)N1C)OCO4 (stereo partly drawn) [Compound 33]	2.50E-08	4.37	12700	1.25E-07	34.2	12500	–	–	–
COc1cc2c(cc1OC)[C@@]1(CS[C@@H]3c4c(OC(C)=O)c(C)c5c(c4[C@H](COC1=O)N1C3[C@H]3c4c(cc(C)c(OC)c4O)C[C@@H]([C@@H]1C#N)N3C)OCO5)NCC2 (stereo partly drawn) [Compound 34]	2.84E-09	0.764	9.06	1.29E-08	0.809	12700	–	–	–
COc1cc2c(cc1OC)[C@@]1(CS[C@@H]3c4c(OC(C)=O)c(C)c5c(c4[C@H](COC1=O)N1C3[C@H]3c4c(cc(C)c(OC)c4OC)C[C@@H]([C@@H]1C#N)N3C)OCO5)NCC2 (stereo partly drawn) [Compound 35]	7.22E-08	5.68	2150	1.25E-08	5.41	12500	–	–	–
COc1cc2c(cc1O)CCN[C@]21CS[C@@H]2c3c(OC(C)=O)c(C)c4c(c3[C@H](COC1=O)N1C2[C@H]2c3c(cc(C)c(OC)c3OC)C[C@@H]([C@@H]1C#N)N2C)OCO4 (stereo partly drawn) [Compound 36]	1.03E-07	6.26	4140	2.55E-08	5.67	12700	–	–	–
C=COC(=O)Oc1c(C)c2c(c3c1[C@H]1SC[C@]4(NCCc5cc(OC(=O)OC(C)(C)C)c(OC)cc54)C(=O)OC[C@@H]3N3C1[C@H]1c4c(cc(C)c(OC)c4O)C[C@@H]([C@@H]3C#N)N1C)OCO2 (stereo partly drawn) [Compound 118]	–	–	–	–	–	–	8.90E-08	7.79E-09	GI50 [1, 7]: 3.34 nM; LC50 (concentration for 50% cell killing) [1, 8]: 2220 nM; GI50 [2, 9]: 7.79 nM; LC50 (concentration for 50% cell killing) [2, 10]: 11100 nM
COc1cc2c(cc1OC(=O)OC(C)(C)C)CCNC21CSC2c3c(OC(=O)CCCCC4SCC5NC(=O)NC54)c(C)c4c(c3C(COC1=O)N1C(C#N)C3Cc5cc(C)c(OC)c(O)c5C(C21)N3C)OCO4 (stereo not drawn) [Compound 123]	–	–	–	–	–	–	2.09E-08	3.14E-09	GI50 ([1]; A-549, SRB, 48 hours exposure, read-out: A-549 GI50): 7.33 nM; LC50 (50% lethal concentration) ([1]; A-549, SRB, 48 hours exposure, read-out: A-549 LC50): 73.3 nM; GI50 ([2]; HT-29, SRB, 48 hours exposure, read-out: HT-29 GI50): 3.14 nM; CC50 ([2]; HT-29, SRB, 48 hours exposure, read-out: HT-29 LC50): 31.4 nM
COc1cc2c(cc1OC(=O)OC(C)(C)C)CCN[C@]21CS[C@@H]2c3c(OC(=O)[C@H](C)NC(=O)OC(C)(C)C)c(C)c4c(c3[C@H](COC1=O)N1C2[C@H]2c3c(cc(C)c(OC)c3O)C[C@@H]([C@@H]1C#N)N2C)OCO4 (stereo partly drawn) [Compound 125]	–	–	–	–	–	–	3.00E-09	2.00E-10	GI50 [1, 11]: 1 nM; LC50 (concentration for 50% cell killing) [1, 8]: 8 nM; GI50 [2, 12]: 0.2 nM; LC50 (concentration for 50% cell killing) [2, 10]: 3 nM
COc1cc2c(cc1O)CCN[C@]21CS[C@@H]2c3c(OC(=O)C(F)(F)C(F)(F)C(F)(F)F)c(C)c4c(c3[C@H](COC1=O)N1C2[C@H]2c3c(cc(C)c(OC)c3O)C[C@@H]([C@@H]1C#N)N2C)OCO4 (stereo partly drawn) [Compound 143]	–	–	–	–	–	–	4.32E-08	1.08E-08	GI50 [1, 7]: 21.6 nM; LC50 (concentration for 50% cell killing) [1, 8]: 108 nM; GI50 [2, 9]: 10.8 nM; LC50 (concentration for 50% cell killing) [2, 10]: 10800 nM
COc1cc2c(cc1O)CCN[C@]21CS[C@@H]2c3c(OC(=O)CCCC[C@@H]4SCC5NC(=O)NC54)c(C)c4c(c3[C@H](COC1=O)N1C2[C@H]2c3c(cc(C)c(OC)c3O)C[C@@H]([C@@H]1C#N)N2C)OCO4 (stereo partly drawn) [Compound 147]	–	–	–	–	–	–	6.84E-08	1.05E-07	GI50 [1, 11]: 32.6 nM; LC50 (concentration for 50% cell killing) [1, 8]: 1050 nM; GI50 [2, 12]: 19.7 nM; LC50 (concentration for 50% cell killing) [2, 10]: 10500 nM
COc1cc2c(cc1O)CCN[C@]21CS[C@@H]2c3c(OC(=O)CCCC[C@@H]4SCC5NC(=O)NC54)c(C)c4c(c3[C@H](COC1=O)N1C2[C@H]2c3c(cc(C)c(OC)c3OC(=O)CCCCC3SCC5NC(=O)NC53)C[C@@H]([C@@H]1C#N)N2C)OCO4 (stereo partly drawn) [Compound 148]	–	–	–	–	–	–	5.19E-07	3.32E-07	GI50 [1, 11]: 255 nM; LC50 (concentration for 50% cell killing) [1, 8]: 2880 nM; GI50 [2, 12]: 140 nM; LC50 (concentration for 50% cell killing) [2, 10]: 786 nM
CCCC(=O)Oc1cc2c(cc1OC)[C@@]1(CS[C@@H]3c4c(OC(C)=O)c(C)c5c(c4[C@H](COC1=O)N1C3[C@H]3c4c(cc(C)c(OC)c4OC(=O)CCC)C[C@@H]([C@@H]1C#N)N3C(=O)OC(C)(C)C)OCO5)NCC2 (stereo partly drawn) [Compound 193]	–	–	–	–	–	–	–	–	GI50 [1, 7]: 0.401 nM; LC50 (concentration for 50% cell killing) ([1]; Homo sapiens, A549, 48 h, read-out: A-549 LC50, SRB assay, 48 hours exposure): 100 nM; A-549 TGI ([1]; SRB assay, 48 hours exposure): 4.01E-09; GI50 [2, 9]: 0.1 nM; LC50 (concentration for 50% cell killing) ([2]; Homo sapiens, HT-29, 48 h, read-out: HT-29 LC50, SRB assay, 48 hours exposure): 20100 nM; HT-29 TGI ([2]; SRB assay, 48 hours exposure): 2.01E-08
